BindingDB's records for doi:10.1016/j.bmcl.2007.12.040 (Merck Research Laboratories, 2008)

Assays:
Assay in all cases: Akt Inhibition Assay
Conditions in all cases: pH 7.5; 22 °C
[1] = biological target: RAC-beta serine/threonine-protein kinase (Homo sapiens, UniProt P31751)
Text: (§1) Purified recombinant human Akt kinase was monitored for kinase activity in the presence or absence of inhibitors in a 96-well format. Detection was done by homogeneous time-resolved fluorescence (HTRF) using a europium-labeled Phospho (S21)-GSK3a antibody, and streptavidin-linked XL665 fluorophore which binds to the biotin moiety on the substrate peptide.

[2] = biological target: RAC-alpha serine/threonine-protein kinase (Homo sapiens, UniProt P31749)
RAC-alpha serine/threonine-protein kinase, sequence (P31749 whole entry): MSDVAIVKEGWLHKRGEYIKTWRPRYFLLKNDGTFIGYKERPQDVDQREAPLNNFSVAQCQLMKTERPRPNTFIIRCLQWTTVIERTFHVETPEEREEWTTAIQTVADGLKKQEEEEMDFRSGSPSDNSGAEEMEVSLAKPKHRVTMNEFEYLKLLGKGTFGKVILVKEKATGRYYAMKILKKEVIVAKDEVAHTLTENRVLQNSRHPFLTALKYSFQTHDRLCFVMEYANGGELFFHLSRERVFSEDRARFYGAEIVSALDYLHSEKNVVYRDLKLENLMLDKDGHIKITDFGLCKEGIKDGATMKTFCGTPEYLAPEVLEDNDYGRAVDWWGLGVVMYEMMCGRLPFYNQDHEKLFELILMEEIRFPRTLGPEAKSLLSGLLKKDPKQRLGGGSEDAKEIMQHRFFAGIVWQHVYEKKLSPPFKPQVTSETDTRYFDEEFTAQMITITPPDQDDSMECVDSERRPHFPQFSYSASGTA
Text: as §1

[3] = biological target: RAC-gamma serine/threonine-protein kinase (Homo sapiens, UniProt Q9Y243)
RAC-gamma serine/threonine-protein kinase, sequence (Q9Y243 whole entry): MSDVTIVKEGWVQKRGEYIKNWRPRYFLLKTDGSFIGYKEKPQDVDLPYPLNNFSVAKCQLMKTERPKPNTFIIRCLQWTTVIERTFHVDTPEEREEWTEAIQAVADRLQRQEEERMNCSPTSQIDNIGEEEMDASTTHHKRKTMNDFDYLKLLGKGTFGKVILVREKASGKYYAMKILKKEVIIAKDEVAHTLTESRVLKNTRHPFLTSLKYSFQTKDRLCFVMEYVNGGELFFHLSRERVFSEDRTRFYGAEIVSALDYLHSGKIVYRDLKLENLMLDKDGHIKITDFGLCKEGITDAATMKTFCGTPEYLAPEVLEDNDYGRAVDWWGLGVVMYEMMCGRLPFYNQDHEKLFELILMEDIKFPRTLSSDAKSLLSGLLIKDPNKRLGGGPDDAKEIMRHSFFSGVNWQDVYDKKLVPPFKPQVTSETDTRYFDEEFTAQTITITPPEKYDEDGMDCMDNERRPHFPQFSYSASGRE
Text: as §1

RAC-beta serine/threonine-protein kinase, sequence (P31751 whole entry): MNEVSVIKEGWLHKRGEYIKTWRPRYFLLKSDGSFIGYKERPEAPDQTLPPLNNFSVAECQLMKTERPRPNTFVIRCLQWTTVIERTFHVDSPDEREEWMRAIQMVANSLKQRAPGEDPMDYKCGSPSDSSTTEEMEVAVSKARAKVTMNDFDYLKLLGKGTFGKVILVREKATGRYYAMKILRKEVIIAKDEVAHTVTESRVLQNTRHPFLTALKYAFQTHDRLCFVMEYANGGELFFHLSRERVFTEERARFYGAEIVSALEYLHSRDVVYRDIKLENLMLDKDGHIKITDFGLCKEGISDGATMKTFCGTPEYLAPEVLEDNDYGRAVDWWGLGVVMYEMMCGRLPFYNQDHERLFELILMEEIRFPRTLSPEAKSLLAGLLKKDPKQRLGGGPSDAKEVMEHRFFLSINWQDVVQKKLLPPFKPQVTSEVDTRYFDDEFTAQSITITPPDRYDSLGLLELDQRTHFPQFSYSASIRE

| IC50 [1] [nM] | IC50 [2] [nM] | IC50 [3] [nM] | SMILES |
| --- | --- | --- | --- |
| 22 | 85 |  | Nc1nnc(-c2cnc(-c3ccc(CN4CCC(c5n[nH]c(-c6ccccn6)n5)CC4)cc3)c(-c3ccccc3)c2)s1 [5-{5-phenyl-6-[4-({4-[5-(pyridin-2-yl)-1H-1,2,4-triazol-3-yl]piperidin-1-yl}methyl)phenyl]pyridin-3-yl}-1,3,4-thiadiazol-2-amine] |
| 90 | 214 |  | Nc1nnc(-c2cnc(-c3ccc(CN4CCC(n5cc(-c6ccccn6)cn5)CC4)cc3)c(-c3ccccc3)c2)s1 [5-{5-phenyl-6-[4-({4-[4-(pyridin-2-yl)-1H-pyrazol-1-yl]piperidin-1-yl}methyl)phenyl]pyridin-3-yl}-1,3,4-thiadiazol-2-amine] |
| 38 | 123 |  | Nc1nnc(-c2cnc(-c3ccc(CN4CCC(c5cc(-c6ccncc6)[nH]n5)CC4)cc3)c(-c3ccccc3)c2)s1 [5-{5-phenyl-6-[4-({4-[5-(pyridin-4-yl)-1H-pyrazol-3-yl]piperidin-1-yl}methyl)phenyl]pyridin-3-yl}-1,3,4-thiadiazol-2-amine] |
| 28 | 95 |  | Nc1nnc(-c2cnc(-c3ccc(CN4CCC(c5cc(-c6ccccn6)[nH]n5)CC4)cc3)c(-c3ccccc3)c2)s1 [5-{5-phenyl-6-[4-({4-[5-(pyridin-2-yl)-1H-pyrazol-3-yl]piperidin-1-yl}methyl)phenyl]pyridin-3-yl}-1,3,4-thiadiazol-2-amine] |
| 105 | 210 | > 50000 | Nc1ncnc2c1ncn2C1CCN(Cc2ccc(-c3ncc(-c4nnn[nH]4)cc3-c3ccccc3)cc2)CC1 [9-[1-({4-[3-phenyl-5-(1H-1,2,3,4-tetrazol-5-yl)pyridin-2-yl]phenyl}methyl)piperidin-4-yl]-9H-purin-6-amine] |

Further lines, the molecule ahead of its results:

| SMILES | IC50 [1] [nM] | IC50 [2] [nM] | IC50 [3] [nM] |
| --- | --- | --- | --- |
| Nc1nnc(-c2cnc(-c3ccc(CNCCC(=O)c4ccccc4N)cc3)c(-c3ccccc3)c2)s1 [3-[({4-[5-(5-amino-1,3,4-thiadiazol-2-yl)-3-phenylpyridin-2-yl]phenyl}methyl)amino]-1-(2-aminophenyl)propan-1-one] | 30 | 114 |  |
| Nc1nnc(-c2cnc(-c3ccc(CN4CCC(n5ncc6c(N)ncnc65)CC4)cc3)c(-c3ccccc3)c2)s1 [5-(6-{4-[(4-{4-amino-1H-pyrazolo[3,4-d]pyrimidin-1-yl}piperidin-1-yl)methyl]phenyl}-5-phenylpyridin-3-yl)-1,3,4-thiadiazol-2-amine] | 22 | 126 |  |
| Nc1nnc(-c2cnc(-c3ccc(CN4CCC(n5c(=O)[nH]c6ncccc65)CC4)cc3)c(-c3ccccc3)c2)s1 [1-[1-({4-[5-(5-amino-1,3,4-thiadiazol-2-yl)-3-phenylpyridin-2-yl]phenyl}methyl)piperidin-4-yl]-1H,2H,3H-imidazo[4,5-b]pyridin-2-one] | 73 | 434 |  |
| Nc1ncnc2c1cnn2C1CCN(Cc2ccc(-c3ncc(-c4nccs4)cc3-c3ccccc3)cc2)CC1 [1-[1-({4-[3-phenyl-5-(1,3-thiazol-2-yl)pyridin-2-yl]phenyl}methyl)piperidin-4-yl]-1H-pyrazolo[3,4-d]pyrimidin-4-amine] | 64 | 264 |  |
| Nc1ncnc2c1cnn2C1CCN(Cc2ccc(-c3ncc(-c4ncccn4)cc3-c3ccccc3)cc2)CC1 [1-[1-({4-[3-phenyl-5-(pyrimidin-2-yl)pyridin-2-yl]phenyl}methyl)piperidin-4-yl]-1H-pyrazolo[3,4-d]pyrimidin-4-amine] | 62 | 306 |  |
| Nc1nnc(-c2cnc(-c3ccc(CN4CCC(n5cc(-c6cnccn6)cn5)CC4)cc3)c(-c3ccccc3)c2)s1 [5-{5-phenyl-6-[4-({4-[4-(pyrazin-2-yl)-1H-pyrazol-1-yl]piperidin-1-yl}methyl)phenyl]pyridin-3-yl}-1,3,4-thiadiazol-2-amine] | 51 | 172 |  |
| Nc1ncnc2c1cnn2C1CCN(Cc2ccc(-c3ncc(-c4nnc[nH]4)cc3-c3ccccc3)cc2)CC1 [1-[1-({4-[3-phenyl-5-(1H-1,2,4-triazol-3-yl)pyridin-2-yl]phenyl}methyl)piperidin-4-yl]-1H-pyrazolo[3,4-d]pyrimidin-4-amine] | 101 | 182 |  |
| Nc1ncnc2c1cnn2C1CCN(Cc2ccc(-c3ncc(-c4ccccn4)cc3-c3ccccc3)cc2)CC1 [1-[1-({4-[3-phenyl-5-(pyridin-2-yl)pyridin-2-yl]phenyl}methyl)piperidin-4-yl]-1H-pyrazolo[3,4-d]pyrimidin-4-amine] | 370 | 1630 |  |
| Nc1ncnc2c1cnn2C1CCN(Cc2ccc(-c3ncc(-c4ncon4)cc3-c3ccccc3)cc2)CC1 [1-[1-({4-[5-(1,2,4-oxadiazol-3-yl)-3-phenylpyridin-2-yl]phenyl}methyl)piperidin-4-yl]-1H-pyrazolo[3,4-d]pyrimidin-4-amine] | 121 | 180 |  |
